Assay results reported in patent publication US6706663B2, “Herbicidal 3-heterocyclic substituted benzisothiazole and benzisoxazole compounds” (Wyeth, priority 2000, dated 2004).

Key:
ORYSAT (Rice, Tebonnet) [1] = assay: Preemergence herbicidal evaluation; assay type: in vivo, Oryza sativa, (L.) Tebonnet; conditions: rated 4-5 weeks after treatment
[2] = system: MOOVA (Monochoria vaginalis); assay: Flooded paddy, preemergence weed control; assay type: in vivo, Presl.; conditions: rated 3-4 weeks after treatment, 0-9 rating scale
Outline: (§1)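 Visual 0-9 rating versus control, scoring stand, vigor, malformation, size, chlorosis and overall appearance. Silt loam soil, propagules in top 0.5 cm; flood depth 1.5–3 cm held for the whole test; greenhouse.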

[3] = system: GLXMAW (Soybean, Williams); assay: Postemergence herbicidal evaluation; assay type: in vivo, Glycine max, (L.) Merr. cv Williams; conditions: postemergence
Outline: (§2)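 Seedlings grown for about two weeks were sprayed postemergence and then kept under standard greenhouse care. Injury was rated visually 4–5 weeks after treatment on a 0–9 scale against untreated controls, and ratings from repeat tests were averaged.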

ORYSAT (Rice, Tebonnet) [4] = assay: Postemergence herbicidal evaluation; assay type: in vivo, Oryza sativa, (L.) Tebonnet; conditions: postemergence
Outline: as §2

SETVI (Setaria viridis) [5] = assay: Preemergence herbicidal evaluation; assay type: in vivo, (L.) Beau; conditions: rated 4-5 weeks after treatment
Outline: (§3)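 Test compound is applied in aqueous acetone to cups just after seeding. Cups are watered and maintained on greenhouse benches. Each cup is scored 0–9 by eye relative to a control after four to five weeks.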

[6] = system: ECHCG (Echinochloa crus-galli); assay: Preemergence herbicidal evaluation; assay type: in vivo, (L.) Beau; conditions: rated 4-5 weeks after treatment
Outline: as §3

[7] = system: ABUTH (Abutilon theophrasti); assay: Preemergence herbicidal evaluation; assay type: in vivo, Medic.; conditions: rated 4-5 weeks after treatment
[8] = system: TRZAWR (Wheat, Winter, cv Riband); assay: Preemergence herbicidal evaluation; assay type: in vivo, Triticum aestivum; conditions: rated 4-5 weeks after treatment
Outline: as §3

[9] = system: IPOHE (Ipomoea hederacea); assay: Postemergence herbicidal evaluation; assay type: in vivo, (L.) Jacq.; conditions: postemergence
Outline: as §2

SETVI (Setaria viridis) [10] = assay: Postemergence herbicidal evaluation; assay type: in vivo, (L.) Beau; conditions: postemergence
Outline: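 Seedlings grown about two weeks were sprayed with compound in 50/50 acetone/water containing 0.5% TWEEN 20, at about 0.0040 to 1.000 kg/ha via nozzle at 40 psi. Plants were kept under greenhouse conditions and visually rated on a 0-9 scale versus control four to five weeks after treatment; replicate tests averaged.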

GALAP (Galium aparine) = assay: Preemergence herbicidal evaluation; assay type: in vivo; conditions: rated 4-5 weeks after treatment
Outline: as §3

ZEAMX (Corn, Field) = assay: Postemergence herbicidal evaluation; assay type: in vivo, Zea mays, L.; conditions: postemergence
Outline: as §2

[11] = system: ECHCG (Echinochloa crus-galli); assay: Postemergence herbicidal evaluation; assay type: in vivo, (L.) Beau; conditions: postemergence
Outline: as §2

[12] = system: ECHORC (Echinochloa oryzoides); assay: Flooded paddy, preemergence weed control; assay type: in vivo, Echinochloa oryzoides (Ard.) Fritsch.; conditions: rated 3-4 weeks after treatment, 0-9 rating scale
Outline: as §1

[13] = system: TRZAWR (Wheat, Winter, cv Riband); assay: Postemergence herbicidal evaluation; assay type: in vivo, Triticum aestivum; conditions: postemergence
Outline: as §2

[14] = system: AMBEL (Ambrosia artemisifolia); assay: Preemergence herbicidal evaluation; assay type: in vivo, L.; conditions: rated 4-5 weeks after treatment
Outline: as §3

[15] = system: CHEAL (Chenopodium album); assay: Preemergence herbicidal evaluation; assay type: in vivo, L.; conditions: rated 4-5 weeks after treatment
Outline: as §3

[16] = system: CASOB (Cassia obtusifolia); assay: Preemergence herbicidal evaluation; assay type: in vivo, L.; conditions: rated 4-5 weeks after treatment
Outline: as §3

Cn1c(C(F)(F)F)cc(=O)n(-c2cc3c(C4OCCCO4)nsc3cc2F)c1=O [Compound 62, 3-(3-m-dioxan-2-yl-6-fluoro-1,2-benzisothiazol-5-yl)-1-methyl-6-(trifluoromethyl)uracil]
Preemergence herbicidal rating ORYSAT (ORYSAT (Rice, Tebonnet) [1]; Rate 0.0620 kg/ha): 9.0 | Preemergence herbicidal rating ORYSAT (ORYSAT (Rice, Tebonnet) [1]; Rate 0.1250 kg/ha): 9.0 | Preemergence herbicidal rating ORYSAT (ORYSAT (Rice, Tebonnet) [1]; Rate 0.2500 kg/ha): 9.0 | herbicidal rating, MOOVA ([2]; rate 0.0080 kg/ha): 8.0 | herbicidal rating, MOOVA ([2]; rate 0.0320 kg/ha): 9.0 | herbicidal rating, MOOVA ([2]; rate 0.1250 kg/ha): 9.0 | GLXMAW herbicidal rating ([3]; rate 0.0320 kg/ha): 9.0 | GLXMAW herbicidal rating ([3]; rate 0.0620 kg/ha): 9.0 | ORYSAT herbicidal rating (ORYSAT (Rice, Tebonnet) [4]; rate 0.0320 kg/ha): 6.0 | ORYSAT herbicidal rating (ORYSAT (Rice, Tebonnet) [4]; rate 0.0620 kg/ha): 6.0 | Preemergence herbicidal rating SETVI (SETVI (Setaria viridis) [5]; Rate 0.0620 kg/ha): 9.0 | Preemergence herbicidal rating SETVI (SETVI (Setaria viridis) [5]; Rate 0.1250 kg/ha): 9.0 | Preemergence herbicidal rating SETVI (SETVI (Setaria viridis) [5]; Rate 0.2500 kg/ha): 9.0 | Preemergence herbicidal rating ECHCG ([6]; Rate 0.0620 kg/ha): 9.0 | Preemergence herbicidal rating ECHCG ([6]; Rate 0.1250 kg/ha): 9.0 | Preemergence herbicidal rating ECHCG ([6]; Rate 0.2500 kg/ha): 9.0 | Preemergence herbicidal rating ABUTH ([7]; Rate 0.0620 kg/ha): 9.0 | Preemergence herbicidal rating ABUTH ([7]; Rate 0.1250 kg/ha): 9.0 | Preemergence herbicidal rating ABUTH ([7]; Rate 0.2500 kg/ha): 9.0 | Preemergence herbicidal rating TRZAWR ([8]; Rate 0.0620 kg/ha): 9.0 | Preemergence herbicidal rating TRZAWR ([8]; Rate 0.1250 kg/ha): 9.0 | Preemergence herbicidal rating TRZAWR ([8]; Rate 0.2500 kg/ha): 9.0 | IPOHE herbicidal rating ([9]; rate 0.0320 kg/ha): 9.0 | IPOHE herbicidal rating ([9]; rate 0.0620 kg/ha): 9.0 | SETVI herbicidal rating (SETVI (Setaria viridis) [10]; rate 0.0320 kg/ha): 9.0 | SETVI herbicidal rating (SETVI (Setaria viridis) [10]; rate 0.0620 kg/ha): 9.0 | Preemergence herbicidal rating GALAP (GALAP (Galium aparine); Rate 0.0620 kg/ha): 9.0 | Preemergence herbicidal rating GALAP (GALAP (Galium aparine); Rate 0.1250 kg/ha): 9.0 | Preemergence herbicidal rating GALAP (GALAP (Galium aparine); Rate 0.2500 kg/ha): 9.0 | ZEAMX herbicidal rating (ZEAMX (Corn, Field); rate 0.0320 kg/ha): 6.0 | ZEAMX herbicidal rating (ZEAMX (Corn, Field); rate 0.0620 kg/ha): 7.0 | ECHCG herbicidal rating ([11]; rate 0.0320 kg/ha): 6.0 | ECHCG herbicidal rating ([11]; rate 0.0620 kg/ha): 9.0 | herbicidal rating, ECHORC ([12]; rate 0.0080 kg/ha): 8.5 | herbicidal rating, ECHORC ([12]; rate 0.0320 kg/ha): 9.0 | herbicidal rating, ECHORC ([12]; rate 0.1250 kg/ha): 9.0 | TRZAWR herbicidal rating ([13]; rate 0.0320 kg/ha): 6.5 | TRZAWR herbicidal rating ([13]; rate 0.0620 kg/ha): 6.5 | Preemergence herbicidal rating AMBEL ([14]; Rate 0.0620 kg/ha): 9.0 | Preemergence herbicidal rating AMBEL ([14]; Rate 0.1250 kg/ha): 9.0 | Preemergence herbicidal rating AMBEL ([14]; Rate 0.2500 kg/ha): 9.0 | Preemergence herbicidal rating CHEAL ([15]; Rate 0.0620 kg/ha): 9.0 | Preemergence herbicidal rating CHEAL ([15]; Rate 0.1250 kg/ha): 9.0 | Preemergence herbicidal rating CHEAL ([15]; Rate 0.2500 kg/ha): 9.0 | Preemergence herbicidal rating CASOB ([16]; Rate 0.0620 kg/ha): 9.0 | Preemergence herbicidal rating CASOB ([16]; Rate 0.1250 kg/ha): 9.0 | Preemergence herbicidal rating CASOB ([16]; Rate 0.2500 kg/ha): 9.0

COCC1COC(c2nsc3ccc(-n4c(=O)cc(C(F)(F)F)n(C)c4=O)cc23)O1 (stereo not shown) [Compound 64, 3-[3-[4-(methoxymethyl)-1,3-dioxolan-2-yl]-1,2-benzisothiazol-5-yl]-1-methyl-6-(trifluoromethyl)uracil]
Preemergence herbicidal rating ORYSAT (ORYSAT (Rice, Tebonnet) [1]; Rate 0.0620 kg/ha): 8.5 | Preemergence herbicidal rating ORYSAT (ORYSAT (Rice, Tebonnet) [1]; Rate 0.1250 kg/ha): 9.0 | Preemergence herbicidal rating ORYSAT (ORYSAT (Rice, Tebonnet) [1]; Rate 0.2500 kg/ha): 9.0 | herbicidal rating, MOOVA ([2]; rate 0.0080 kg/ha): 0.0 | herbicidal rating, MOOVA ([2]; rate 0.0320 kg/ha): 9.0 | herbicidal rating, MOOVA ([2]; rate 0.1250 kg/ha): 9.0 | GLXMAW herbicidal rating ([3]; rate 0.0320 kg/ha): 7.0 | GLXMAW herbicidal rating ([3]; rate 0.0620 kg/ha): 8.5 | ORYSAT herbicidal rating (ORYSAT (Rice, Tebonnet) [4]; rate 0.0320 kg/ha): 5.0 | ORYSAT herbicidal rating (ORYSAT (Rice, Tebonnet) [4]; rate 0.0620 kg/ha): 5.5 | Preemergence herbicidal rating SETVI (SETVI (Setaria viridis) [5]; Rate 0.0620 kg/ha): 9.0 | Preemergence herbicidal rating SETVI (SETVI (Setaria viridis) [5]; Rate 0.1250 kg/ha): 9.0 | Preemergence herbicidal rating SETVI (SETVI (Setaria viridis) [5]; Rate 0.2500 kg/ha): 9.0 | Preemergence herbicidal rating ECHCG ([6]; Rate 0.0620 kg/ha): 9.0 | Preemergence herbicidal rating ECHCG ([6]; Rate 0.1250 kg/ha): 9.0 | Preemergence herbicidal rating ECHCG ([6]; Rate 0.2500 kg/ha): 9.0 | Preemergence herbicidal rating ABUTH ([7]; Rate 0.0620 kg/ha): 9.0 | Preemergence herbicidal rating ABUTH ([7]; Rate 0.1250 kg/ha): 9.0 | Preemergence herbicidal rating ABUTH ([7]; Rate 0.2500 kg/ha): 9.0 | Preemergence herbicidal rating TRZAWR ([8]; Rate 0.0620 kg/ha): 9.0 | Preemergence herbicidal rating TRZAWR ([8]; Rate 0.1250 kg/ha): 9.0 | Preemergence herbicidal rating TRZAWR ([8]; Rate 0.2500 kg/ha): 9.0 | IPOHE herbicidal rating ([9]; rate 0.0320 kg/ha): 9.0 | IPOHE herbicidal rating ([9]; rate 0.0620 kg/ha): 9.0 | SETVI herbicidal rating (SETVI (Setaria viridis) [10]; rate 0.0320 kg/ha): 6.0 | SETVI herbicidal rating (SETVI (Setaria viridis) [10]; rate 0.0620 kg/ha): 7.0 | Preemergence herbicidal rating GALAP (GALAP (Galium aparine); Rate 0.0620 kg/ha): 9.0 | Preemergence herbicidal rating GALAP (GALAP (Galium aparine); Rate 0.1250 kg/ha): 9.0 | Preemergence herbicidal rating GALAP (GALAP (Galium aparine); Rate 0.2500 kg/ha): 9.0 | ZEAMX herbicidal rating (ZEAMX (Corn, Field); rate 0.0320 kg/ha): 5.5 | ZEAMX herbicidal rating (ZEAMX (Corn, Field); rate 0.0620 kg/ha): 5.5 | ECHCG herbicidal rating ([11]; rate 0.0320 kg/ha): 3.0 | ECHCG herbicidal rating ([11]; rate 0.0620 kg/ha): 5.0 | herbicidal rating, ECHORC ([12]; rate 0.0080 kg/ha): 1.5 | herbicidal rating, ECHORC ([12]; rate 0.0320 kg/ha): 9.0 | herbicidal rating, ECHORC ([12]; rate 0.1250 kg/ha): 9.0 | TRZAWR herbicidal rating ([13]; rate 0.0320 kg/ha): 4.0 | TRZAWR herbicidal rating ([13]; rate 0.0620 kg/ha): 5.0 | Preemergence herbicidal rating AMBEL ([14]; Rate 0.0620 kg/ha): 9.0 | Preemergence herbicidal rating AMBEL ([14]; Rate 0.1250 kg/ha): 9.0 | Preemergence herbicidal rating AMBEL ([14]; Rate 0.2500 kg/ha): 9.0 | Preemergence herbicidal rating CHEAL ([15]; Rate 0.0620 kg/ha): 9.0 | Preemergence herbicidal rating CHEAL ([15]; Rate 0.1250 kg/ha): 9.0 | Preemergence herbicidal rating CHEAL ([15]; Rate 0.2500 kg/ha): 9.0 | Preemergence herbicidal rating CASOB ([16]; Rate 0.0620 kg/ha): 7.5 | Preemergence herbicidal rating CASOB ([16]; Rate 0.1250 kg/ha): 9.0 | Preemergence herbicidal rating CASOB ([16]; Rate 0.2500 kg/ha): 9.0
